Holding throughout (assay): inhibition of tumour cell growth, NCI panel, 48 h
In experiment [1] the test system is NCI-H460.
Experiment [2] relates to UACC-257.
The subject of experiment [3] is NCI-H23.
Experiment [4] concerns OVCAR-3.
For experiment [5], the system named is UO-31.
Experiment [6] relates to TK-10.
In experiment [7] the test system is CAKI-1.
For experiment [8], the system named is SK-MEL-2.
For experiment [9], the system named is SK-OV-3.
Experiment [10] concerns KM12.
Experiment [11] deals with EKVX.
The test system of experiment [12] is Malme-3M.
Experiment [13] concerns SN12C.
The subject of experiment [14] is SR.
Experiment [15] has as its system ACHN.
For experiment [16], the system named is MOLT-4.
For experiment [17], the system named is HOP-62.
The subject of experiment [18] is SF-268.
The test system of experiment [19] is HOP-92.
Experiment [20] has as its system RPMI-8226.

The structures appear in SMILES notation.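 Assay format: 96-well plates, 48-hour exposure. GI50 is the concentration that inhibits growth by half.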 Calls of active or inactive are those of the source. Rule as the data show it: active = GI50 up to about 1.1 µM and inactive = higher.

On to `CCN(CC)CCO[Si](OCCN(CC)CC)(OCCN(CC)CC)OCCN(CC)CC`, for which the GI50 in experiment [1], in experiment [2], in experiment [3], in experiment [4], in experiment [5] and in experiment [6] was > 100 µM (inactive) each time. Moreover, the GI50 in experiment [7], in experiment [8], in experiment [9], in experiment [10], in experiment [11] and in experiment [12] was > 100 µM (inactive) in each case. In addition, the GI50 in experiment [13] and in [14] was > 100 µM (inactive) each time.
Turning to `Cc1cc(C)nc(NS(=O)(=O)c2ccc(NC(=O)c3cccc4c(Nc5ccc(S(=O)(=O)Nc6cc(C)on6)cc5)c5ccccc5nc34)cc2)n1`, the GI50 in experiment [15] is 38.6 µM (inactive); in [1], 25.6 µM (inactive); in [2], 22.2 µM (inactive); in experiment [16], 25.4 µM (inactive); in experiment [3], 18.3 µM (inactive); in [4] it was 19.9 µM (inactive). Besides, the GI50 in [5] was 35 µM (inactive); in [6], 34.4 µM (inactive); in experiment [8] it was 19.5 µM (inactive); in [9], 27.9 µM (inactive); in experiment [10], 16.4 µM (inactive); in experiment [11], 24.9 µM (inactive). The GI50 is 19.1 µM (inactive) in experiment [17]; 18 µM (inactive) in experiment [12]; 19.7 µM (inactive) in experiment [18]; 23 µM (inactive) in experiment [13]; 27.2 µM (inactive) in experiment [14].
For `O=C(Nc1ccc(Cl)c(Cl)c1)C(=O)C(C(=O)c1ccccc1F)C1OC(=O)c2ccccc21` (stereo not given), the GI50 in experiment [15] is 31.9 µM (inactive); in experiment [1] it was 18.6 µM (inactive); in [2] it was 40.8 µM (inactive); in [16], 29.6 µM (inactive); in [3], 28.6 µM (inactive); in experiment [5], 18.8 µM (inactive). Besides, the GI50 in experiment [6] was 38.8 µM (inactive); in [7] it was 35.2 µM (inactive); in [8] it was 12.3 µM (inactive); in [9] it was 27.7 µM (inactive); in [19], 51.6 µM (inactive); in [10] it was 20 µM (inactive). Also, the GI50 in experiment [11] is 22.4 µM (inactive); in experiment [17], 23.4 µM (inactive); in experiment [18] it was 23.7 µM (inactive); in [13], 19.2 µM (inactive); in experiment [14], 10.4 µM (inactive); in experiment [20], 18.2 µM (inactive).
`CCOC(=O)C1(C#N)C(c2ccccc2)CC(O)(c2ccc(OC)cc2)C(C(=O)c2ccc(OC)cc2)C1c1ccccc1` (stereo not given): the GI50 in [15], in [1], in experiment [2], in [16], in experiment [3] and in experiment [4] was > 100 µM (inactive) each time. The GI50 is 74.6 µM (inactive) in [5]; > 100 µM (inactive) in experiment [6]; 98.2 µM (inactive) in experiment [7]; > 100 µM (inactive) in experiment [8]; > 100 µM (inactive) in experiment [9]; > 100 µM (inactive) in [10]. For the same compound, the GI50 in [11], in [17], in [12], in [18], in experiment [13] and in [14] was > 100 µM (inactive) in each case. The GI50 in [20] was > 100 µM (inactive).
Turning to `CC1CC(c2ccccc2)=Nc2ccccc2S1` (stereo not given), the GI50 in [15] is > 100 µM (inactive); in experiment [1] it was > 100 µM (inactive); in [2] it was > 100 µM (inactive); in [16] it was 77.8 µM (inactive); in [3] it was > 100 µM (inactive); in [5], > 100 µM (inactive). Also, the GI50 in experiment [6], in experiment [7], in experiment [8], in [9], in [19] and in experiment [10] was > 100 µM (inactive) each time. In addition, the GI50 in experiment [11] was 72.8 µM (inactive); in experiment [17], > 100 µM (inactive); in experiment [18] it was > 100 µM (inactive); in experiment [13], > 100 µM (inactive); in experiment [14] it was > 100 µM (inactive); in experiment [20], 68.5 µM (inactive).
For the compound `CCCCCCCc1cscc1-c1cscc1Br`, the GI50 in experiment [15] is 33.5 µM (inactive); in [1], 39.4 µM (inactive); in experiment [2], 31.6 µM (inactive); in [16], 20.2 µM (inactive); in [3], 40.8 µM (inactive); in experiment [5], 35.6 µM (inactive). Also, the GI50 was > 100 µM (inactive) in experiment [6]; 22.5 µM (inactive) in experiment [7]; 16.6 µM (inactive) in experiment [8]; 45.9 µM (inactive) in experiment [9]; 27.2 µM (inactive) in experiment [10]; 56.1 µM (inactive) in [11]. In addition, the GI50 was 57.4 µM (inactive) in experiment [17]; 42.1 µM (inactive) in experiment [12]; > 100 µM (inactive) in experiment [18]; 69.5 µM (inactive) in experiment [13]; 19.6 µM (inactive) in experiment [14]; 18.5 µM (inactive) in experiment [20].
With `O=c1c2cc(I)ccc2nc(-c2cccs2)n1O`, the GI50 is 46.3 µM (inactive) in experiment [15]; 36.6 µM (inactive) in [1]; 59 µM (inactive) in experiment [2]; 34.8 µM (inactive) in [16]; 24.2 µM (inactive) in experiment [3]; 15.6 µM (inactive) in experiment [4]. Moreover, the GI50 in [5] was 49 µM (inactive); in experiment [6], 24.6 µM (inactive); in experiment [7] it was 28.8 µM (inactive); in experiment [8], 48.6 µM (inactive); in experiment [19], 28.1 µM (inactive); in [10], 32.6 µM (inactive). Besides, the GI50 was 26.4 µM (inactive) in experiment [11]; 48.9 µM (inactive) in experiment [17]; 38.4 µM (inactive) in experiment [18]; 45 µM (inactive) in experiment [13]; 33.8 µM (inactive) in experiment [14]; 27 µM (inactive) in [20].
With `S=C=NCCc1ccccc1` [PHENETHYLISOTHIOCYANATE], the GI50 is 1.56 µM (inactive) in experiment [15]; 0.0973 µM (active) in [1]; 0.885 µM (active) in experiment [2]; 0.53 µM (active) in experiment [16]; 0.453 µM (active) in [3]; 0.612 µM (active) in [4]. Also, the GI50 in [5] was 1.59 µM (inactive); in [6], 0.813 µM (active); in experiment [8] it was 0.402 µM (active); in [9] it was 1.72 µM (inactive); in experiment [10] it was 0.239 µM (active); in [11], 16.8 µM (inactive). The GI50 in experiment [17] is 0.371 µM (active); in experiment [12] it was 0.964 µM (active); in experiment [18], 1.06 µM (active); in experiment [13], 0.319 µM (active); in experiment [14], 0.351 µM (active); in experiment [20], 0.179 µM (active).
